Literature values in patent publication US20080096972A1, “COMPOUND FORMULATIONS OF 2-AMINO-1, 3-PROPANEDIOL COMPOUNDS” (priority 2004, published 2008).

Details: shortly after preparation or upon storage

CCCCCCCCc1ccc(CCC(N)(CO)CO)cc1 [2-amino-2-[2-(4-octylphenyl)ethyl]-propane-1,3-diol]
crystalline deposits in aqueous solutions: crystalline deposits of this compound have been observed
